According to EP1285919A1, “C10 Carbonate substituted taxanes as antitumor agents” (Florida State University Research Foundation, Inc., priority 2001, dated 2003):

Tested on: HCT116
Assay: In vitro cytotoxicity, cell colony formation assay
Format: cell-based
Details: HCT116; 72 h with drug, colonies counted after 7 days; concentration producing 50% inhibition of colony formation; read-out: IN VITRO ID 50
Method: In Vitro cytotoxicity measured by the cell colony formation assay
Four hundred cells (HCT116) were plated in 60 mm Petri dishes containing 2.7 mL of medium (modified McCoy's 5a medium containing 10% fetal bovine serum and 100 units/mL penicillin and […] streptomycin). The cells were incubated in a CO2 incubator at 37 °C for 5 h for attachment to the bottom of Petri dishes. The compounds identified in Example 2 were made up fresh in medium at ten times the final concentration, and then 0.3 mL of this stock solution was added to the 2.7 mL of medium in the dish. The cells were then incubated with drugs for 72 h at 37 ° C. At the end of incubation the drug-containing media were decanted, the dishes were rinsed with 4 mL of Hank's Balance Salt Solution (HBSS), 5 mL of fresh medium was added, and the dishes were returned to the incubator for colony formation. The cell colonies were counted using a colony counter after incubation for 7 days.

SMILES | IC50 [nM]
CCOC(=O)OC1C(=O)C2(C)C(O)CC3OCC3(OC(C)=O)C2C(OC(=O)c2ccccc2)C2(O)CC(OC(=O)C(O)C(C=C(C)C)NC(=O)OC(C)(C)C)C(C)=C1C2(C)C (stereo not drawn) [Compound 1788] | < 1
CCOC(=O)OC1C(=O)C2(C)C(O)CC3OCC3(OC(C)=O)C2C(OC(=O)c2ccccc2)C2(O)CC(OC(=O)C(O)C(NC(=O)OC(C)(C)C)c3ccccn3)C(C)=C1C2(C)C (stereo not drawn) [Compound 1799] | < 1
CCOC(=O)OC1C(=O)C2(C)C(O)CC3OCC3(OC(C)=O)C2C(OC(=O)c2ccccc2)C2(O)CC(OC(=O)C(O)C(NC(=O)OC(C)(C)C)c3cccnc3)C(C)=C1C2(C)C (stereo not drawn) [Compound 1808] | < 10
CCOC(=O)OC1C(=O)C2(C)C(O)CC3OCC3(OC(C)=O)C2C(OC(=O)c2ccccc2)C2(O)CC(OC(=O)C(O)C(NC(=O)OC(C)(C)C)c3ccncc3)C(C)=C1C2(C)C (stereo not drawn) [Compound 1811] | < 1
CCOC(=O)OC1C(=O)C2(C)C(O)CC3OCC3(OC(C)=O)C2C(OC(=O)c2ccccc2)C2(O)CC(OC(=O)C(O)C(NC(=O)OC(C)(C)C)c3ccco3)C(C)=C1C2(C)C (stereo not drawn) [Compound 1822] | < 1
CCOC(=O)OC1C(=O)C2(C)C(O)CC3OCC3(OC(C)=O)C2C(OC(=O)c2ccccc2)C2(O)CC(OC(=O)C(O)C(NC(=O)OC(C)(C)C)c3ccsc3)C(C)=C1C2(C)C (stereo not drawn) [Compound 1841] | < 1
CCOC(=O)OC1C(=O)C2(C)C(O)CC3OCC3(OC(C)=O)C2C(OC(=O)c2ccccc2)C2(O)CC(OC(=O)C(O)C(NC(=O)OC(C)(C)C)C3CCC3)C(C)=C1C2(C)C (stereo not drawn) [Compound 1855] | < 10
CCOC(=O)OC1C(=O)C2(C)C(O)CC3OCC3(OC(C)=O)C2C(OC(=O)c2ccccc2)C2(O)CC(OC(=O)C(O)C(NC(=O)OC(C)(C)C)c3ccc([N+](=O)[O-])cc3)C(C)=C1C2(C)C (stereo not drawn) [Compound 1866] | < 1
COC(=O)OC1C(=O)C2(C)C(O)CC3OCC3(OC(C)=O)C2C(OC(=O)c2ccccc2)C2(O)CC(OC(=O)C(O)C(C=C(C)C)NC(=O)OC(C)(C)C)C(C)=C1C2(C)C (stereo not drawn) [Compound 1999] | < 1
COC(=O)OC1C(=O)C2(C)C(O)CC3OCC3(OC(C)=O)C2C(OC(=O)c2ccccc2)C2(O)CC(OC(=O)C(O)C(NC(=O)OC(C)(C)C)c3ccccn3)C(C)=C1C2(C)C (stereo not drawn) [Compound 2002] | < 1
COC(=O)OC1C(=O)C2(C)C(O)CC3OCC3(OC(C)=O)C2C(OC(=O)c2ccccc2)C2(O)CC(OC(=O)C(O)C(NC(=O)OC(C)(C)C)c3cccnc3)C(C)=C1C2(C)C (stereo not drawn) [Compound 2011] | < 10
COC(=O)OC1C(=O)C2(C)C(O)CC3OCC3(OC(C)=O)C2C(OC(=O)c2ccccc2)C2(O)CC(OC(=O)C(O)C(NC(=O)OC(C)(C)C)c3ccncc3)C(C)=C1C2(C)C (stereo not drawn) [Compound 2020] | < 1
COC(=O)OC1C(=O)C2(C)C(O)CC3OCC3(OC(C)=O)C2C(OC(=O)c2ccccc2)C2(O)CC(OC(=O)C(O)C(NC(=O)OC(C)(C)C)c3cccs3)C(C)=C1C2(C)C (stereo not drawn) [Compound 2044] | < 1
COC(=O)OC1C(=O)C2(C)C(O)CC3OCC3(OC(C)=O)C2C(OC(=O)c2ccccc2)C2(O)CC(OC(=O)C(O)C(NC(=O)OC(C)(C)C)c3ccsc3)C(C)=C1C2(C)C (stereo not drawn) [Compound 2050] | < 1
COC(=O)OC1C(=O)C2(C)C(O)CC3OCC3(OC(C)=O)C2C(OC(=O)c2ccccc2)C2(O)CC(OC(=O)C(O)C(NC(=O)OC(C)(C)C)C(C)C)C(C)=C1C2(C)C (stereo not drawn) [Compound 2062] | < 10
COC(=O)OC1C(=O)C2(C)C(O)CC3OCC3(OC(C)=O)C2C(OC(=O)c2ccccc2)C2(O)CC(OC(=O)C(O)C(NC(=O)OC(C)(C)C)C3CCC3)C(C)=C1C2(C)C (stereo not drawn) [Compound 2077] | < 10
COC(=O)OC1C(=O)C2(C)C(O)CC3OCC3(OC(C)=O)C2C(OC(=O)c2ccccc2)C2(O)CC(OC(=O)C(O)C(NC(=O)OC(C)(C)C)c3ccc([N+](=O)[O-])cc3)C(C)=C1C2(C)C (stereo not drawn) [Compound 2088] | < 1

SMILES | IC50 [nM]
COC(=O)OC1C(=O)C2(C)C(O)CC3OCC3(OC(C)=O)C2C(OC(=O)c2ccccc2)C2(O)CC(OC(=O)C(O)C(NC(=O)OC(C)(C)C)c3ccccc3)C(C)=C1C2(C)C (stereo not drawn) [Compound 2092] | < 1
CCOC(=O)OC1C(=O)C2(C)C(O)CC3OCC3(OC(C)=O)C2C(OC(=O)c2ccccc2)C2(O)CC(OC(=O)C(O)C(NC(=O)c3ccccc3)c3cccs3)C(C)=C1C2(C)C (stereo not drawn) [Compound 2972] | < 10
CCOC(=O)OC1C(=O)C2(C)C(O)CC3OCC3(OC(C)=O)C2C(OC(=O)c2ccccc2)C2(O)CC(OC(=O)C(O)C(NC(=O)OC(C)C)c3cccs3)C(C)=C1C2(C)C (stereo not drawn) [Compound 2999] | < 1
CCOC(=O)OC1C(=O)C2(C)C(O)CC3OCC3(OC(C)=O)C2C(OC(=O)c2ccccc2)C2(O)CC(OC(=O)C(O)C(NC(=O)OCC(C)C)c3cccs3)C(C)=C1C2(C)C (stereo not drawn) [Compound 3003] | < 10
CCOC(=O)OC1C(=O)C2(C)C(O)CC3OCC3(OC(C)=O)C2C(OC(=O)c2ccccc2)C2(O)CC(OC(=O)C(O)C(NC(=O)c3ccco3)c3cccs3)C(C)=C1C2(C)C (stereo not drawn) [Compound 3011] | < 1
CCOC(=O)OC1C(=O)C2(C)C(O)CC3OCC3(OC(C)=O)C2C(OC(=O)c2ccccc2)C2(O)CC(OC(=O)C(O)C(NC(=O)c3cccs3)c3cccs3)C(C)=C1C2(C)C (stereo not drawn) [Compound 3020] | < 1
CCCC(=O)NC(c1cccs1)C(O)C(=O)OC1CC2(O)C(OC(=O)c3ccccc3)C3C4(OC(C)=O)COC4CC(O)C3(C)C(=O)C(OC(=O)OCC)C(=C1C)C2(C)C (stereo not drawn) [Compound 3155] | < 1
CCOC(=O)OC1C(=O)C2(C)C(O)CC3OCC3(OC(C)=O)C2C(OC(=O)c2ccccc2)C2(O)CC(OC(=O)C(O)C(NC(=O)OCC(C)C)c3ccco3)C(C)=C1C2(C)C (stereo not drawn) [Compound 3181] | < 1
CCOC(=O)OC1C(=O)C2(C)C(O)CC3OCC3(OC(C)=O)C2C(OC(=O)c2ccccc2)C2(O)CC(OC(=O)C(O)C(NC(=O)c3cccnc3)c3cccs3)C(C)=C1C2(C)C (stereo not drawn) [Compound 3300] | < 10
CCOC(=O)OC1C(=O)C2(C)C(O)CC3OCC3(OC(C)=O)C2C(OC(=O)c2ccccc2)C2(O)CC(OC(=O)C(O)C(NC(=O)c3ccccn3)c3cccs3)C(C)=C1C2(C)C (stereo not drawn) [Compound 3433] | 22.3
CCCC(=O)NC(c1ccco1)C(O)C(=O)OC1CC2(O)C(OC(=O)c3ccccc3)C3C4(OC(C)=O)COC4CC(O)C3(C)C(=O)C(OC(=O)OCC)C(=C1C)C2(C)C (stereo not drawn) [Compound 3929] | < 1
CCOC(=O)OC1C(=O)C2(C)C(O)CC3OCC3(OC(C)=O)C2C(OC(=O)c2ccccc2)C2(O)CC(OC(=O)C(O)C(NC(=O)OC(C)C)c3ccco3)C(C)=C1C2(C)C (stereo not drawn) [Compound 3963] | < 1
CC=CC(=O)NC(c1ccco1)C(O)C(=O)OC1CC2(O)C(OC(=O)c3ccccc3)C3C4(OC(C)=O)COC4CC(O)C3(C)C(=O)C(OC(=O)OCC)C(=C1C)C2(C)C (stereo not drawn) [Compound 4000] | < 1
CCOC(=O)OC1C(=O)C2(C)C(O)CC3OCC3(OC(C)=O)C2C(OC(=O)c2ccccc2)C2(O)CC(OC(=O)C(O)C(NC(=O)c3cccs3)c3ccco3)C(C)=C1C2(C)C (stereo not drawn) [Compound 4088] | < 10
CCOC(=O)OC1C(=O)C2(C)C(O)CC3OCC3(OC(C)=O)C2C(OC(=O)c2ccccc2)C2(O)CC(OC(=O)C(O)C(NC(=O)c3ccccc3)c3ccco3)C(C)=C1C2(C)C (stereo not drawn) [Compound 4090] | < 1
CCOC(=O)OC1C(=O)C2(C)C(O)CC3OCC3(OC(C)=O)C2C(OC(=O)c2ccccc2)C2(O)CC(OC(=O)C(O)C(C=C(C)C)NC(=O)OCC(C)C)C(C)=C1C2(C)C (stereo not drawn) [Compound 5155] | < 10
